Measured values reported in patent US7846697B2, “Method of producing a low molecular weight organic compound in a cell” (BLMaps, priority 2003, dated 2010).

Key:
microorganisms = settings: Pfeifer et al, 1984; cited from earlier work
[1] = test system: E. coli strain KO1418 transformants; assay: Toxicity of vanillin with IPTG-induced expression of UGT85B1 or AS, growth on plates; assay type: cell-based; also: key: −: No growth; +: weak growth; ++: good growth
Experimental: The E. coli strains TOP10, JM109, and KO1418 were all transformed with the constructed plasmids pJH401, pJH402, pJH411 and pJH412, and pKK223-3 as control, employing standard transformation protocols. Transformants were selected for ampicilin resistance, and two transformants of each E. coli strain with each plasmid were kept for expression experiments. The E. coli transformants were inoculated from plate cultures into 2 ml liquid growth medium (LB medium containing ampicilin at 100 μg/ml), and allowed to grow for 20 hours at 37° C. The precultures were diluted 100 times 10^4 times and 10^6 times in growth medium, and 4 μl droplets of these cell suspensions were applied to the surface of Petri dishes containing solid LB-ampicilin medium containing varying concentrations of vanillin (based on the STV determinations described above), and without or with (to induce gene expression) 1 mM isopropyl thiogalactoside (IPTG). The plates were incubated at 37° C. for 24 hours, after which growth on the various concentrations of vanillin was monitored and recorded.

COc1cc(C=O)ccc1O [Vanillin, vanillin]
−: growth ([1]; KO1418 [pJH401], 0.16% vanillin, IPTG induction No) | growth ([1]; KO1418 [pJH401], 0.2% vanillin, IPTG induction No) | growth ([1]; KO1418 [pJH401], 0.2% vanillin, IPTG induction Yes) | growth ([1]; KO1418 [pJH402], 0.2% vanillin, IPTG induction No) | growth ([1]; KO1418 [pJH402], 0.2% vanillin, IPTG induction Yes) | growth ([1]; KO1418 [pJH410], 0.2% vanillin, IPTG induction No) | growth ([1]; KO1418 [pKK223-3], 0.16% vanillin, IPTG induction No) | growth ([1]; KO1418 [pKK223-3], 0.2% vanillin, IPTG induction No) | growth ([1]; KO1418 [pKK223-3], 0.2% vanillin, IPTG induction Yes)
5 g/L: concentration in the medium at which it acts as a strong growth inhibitor (microorganisms)
+: growth ([1]; KO1418 [pJH402], 0.16% vanillin, IPTG induction No)
++: growth ([1]; KO1418 [pJH401], 0.08% vanillin, IPTG induction No) | growth ([1]; KO1418 [pJH401], 0.08% vanillin, IPTG induction Yes) | growth ([1]; KO1418 [pJH401], 0.12% vanillin, IPTG induction No) | growth ([1]; KO1418 [pJH401], 0.12% vanillin, IPTG induction Yes) | growth ([1]; KO1418 [pJH401], 0.16% vanillin, IPTG induction Yes) | growth ([1]; KO1418 [pJH402], 0.08% vanillin, IPTG induction No) | growth ([1]; KO1418 [pJH402], 0.08% vanillin, IPTG induction Yes) | growth ([1]; KO1418 [pJH402], 0.12% vanillin, IPTG induction No) | growth ([1]; KO1418 [pJH402], 0.12% vanillin, IPTG induction Yes) | growth ([1]; KO1418 [pJH402], 0.16% vanillin, IPTG induction Yes) | growth ([1]; KO1418 [pJH410], 0.08% vanillin, IPTG induction No) | growth ([1]; KO1418 [pJH410], 0.12% vanillin, IPTG induction Yes) | growth ([1]; KO1418 [pJH410], 0.16% vanillin, IPTG induction No) | growth ([1]; KO1418 [pJH410], 0.16% vanillin, IPTG induction Yes) | growth ([1]; KO1418 [pKK223-3], 0.08% vanillin, IPTG induction No) | growth ([1]; KO1418 [pKK223-3], 0.08% vanillin, IPTG induction Yes) | growth ([1]; KO1418 [pKK223-3], 0.12% vanillin, IPTG induction No) | growth ([1]; KO1418 [pKK223-3], 0.12% vanillin, IPTG induction Yes) | growth ([1]; KO1418 [pKK223-3], 0.16% vanillin, IPTG induction Yes)
